The values that follow come from ChEMBL document CHEMBL4145457, “Design, synthesis and biological evaluation of novel pyridine-thiazolidinone derivatives as anticancer agents: Targeting human carbonic anhydrase IX” (Eur J Med Chem, 2018).

Broadly, the IC50 is the concentration that gives 50% inhibition.

Data set [1] can be described thus: Ratio of IC50 for HEK293 cells to IC50 for human HepG2 cells. The class given is toxicity. The following applies: HEK293 cells versus HepG2 cells, read-out: Ratio IC50.
Data set [2] has as its target T1, Carbonic anhydrase 9 (Homo sapiens, UniProt Q16790). The data set can be described thus: Inhibition of human carbonic anhydrase 9 using 4-NPA as substrate after 3 mins by spectrophotometric analysis.
Data set [3] deals with HepG2. The data set can be described thus: cells. The following applies: Homo sapiens, HepG2, 48 h.
Description: Cytotoxicity against human HepG2 cells after 48 hrs by MTT assay
Data set [4] relates to MCF7. The data set can be described thus: Cytotoxicity against human MCF7 cells after 48 hrs by MTT assay. The class given is functional, cell-based. The following applies: MCF7, 48 h. In general terms: Formazan colour is commonly taken as a measure of viable cells.
Data set [5] concerns HEK293. The data set can be described thus: Cytotoxicity against human HEK293 cells after 48 hrs by MTT assay. In kind it is cell-based. The following applies: HEK293, 48 h.
A short description of data set [6]: Ratio of IC50 for HEK293 cells to IC50 for human MCF7 cells. In kind it is toxicity. The following applies: HEK293 cells versus MCF7 cells, read-out: Ratio IC50.
Data set [7] addresses T1, Carbonic anhydrase 9. Nature of the data set: Binding affinity to human carbonic anhydrase 9 by spectrofluorimetric analysis.
The target of data set [8] is Carbonic anhydrase 2 (Homo sapiens, UniProt P00918). The data set can be described thus: Inhibition of human carbonic anhydrase 2 using 4-NPA as substrate after 3 mins by spectrophotometric analysis.

As for `S=C(NCc1ccncc1)Nc1ccccc1`, the selectivity ratio was determined as 2.4 in data set [1] and 1.2 in data set [6]. For the same compound, the IC50 in data set [2] was found to be 17.9 µM; in data set [3] it was 19.3 µM; in data set [4], 37.3 µM; in data set [5] it was 47.2 µM.

As for `CC(C)c1ccc(/C=C2/S/C(=N/c3ccccc3)N(Cc3ccncc3)C2=O)cc1`, the selectivity ratio in data set [1] came to 4.2; in data set [6], 2.5. The IC50 in data set [2] was found to be 63.1 µM; in data set [3], 32.3 µM; in data set [4] it was 53.3 µM; in data set [5], 137 µM.

Consider `COc1cc(/C=C2/S/C(=N/c3ccccc3)N(Cc3ccncc3)C2=O)ccc1O`, for which the selectivity ratio in data set [1] stood at 2.3; in data set [6] it was 2.4. Besides, the IC50 in data set [2] was found to be 60.9 µM; in data set [3] it was 28.6 µM; in data set [4], 28 µM; in data set [5], 67.4 µM.

As for `O=C1/C(=C\c2ccccc2)S/C(=N/c2ccccc2)N1Cc1ccncc1`, the selectivity ratio was 2.5 in data set [1] and 2.4 in data set [6]. Besides, the IC50 in data set [2] came to 50.9 µM; in data set [3], 25.2 µM; in data set [4] it was 26.4 µM; in data set [5], 64.7 µM.

As for `Cc1ccc(/C=C2/S/C(=N/c3ccccc3)N(Cc3ccncc3)C2=O)s1`, the values for the selectivity ratio in data set [1] and in data set [6] were 6.3 and 5.1, respectively. In addition, the IC50 in data set [2] was 10 µM; in data set [3], 23.1 µM; in data set [4], 28.7 µM; in data set [5] it was 146 µM.

As for `O=C1/C(=C\c2cccc(Cl)c2)S/C(=N/c2ccccc2)N1Cc1ccncc1`, the selectivity ratio in data set [1] and in data set [6] was 2.4 in each case. Also, the IC50 in data set [2] was found to be 43.5 µM; in data set [3] it was 28.9 µM; in data set [4], 29.8 µM; in data set [5] it was 71.8 µM.

Consider `O=C1/C(=C\c2ccc(Cl)cc2)S/C(=N/c2ccccc2)N1Cc1ccncc1`, for which the selectivity ratio in data set [1] is 1.4; in data set [6], 1.1. Also, the IC50 in data set [2] is 40.2 µM; in data set [3] it was 28.8 µM; in data set [4], 54.9 µM; in data set [5], 42.3 µM.

Consider `COc1ccc(OC)c(/C=C2/S/C(=N/c3ccccc3)N(Cc3ccncc3)C2=O)c1`, for which the results for the selectivity ratio in data set [1] and in data set [6] were 2.2 and 2.1, respectively. Besides, the IC50 turned out to be 16.7 µM in data set [2], 35.8 µM in data set [3], 37 µM in data set [4] and 80.1 µM in data set [5].

Take `O=C1/C(=C\c2ccc(O)cc2)S/C(=N/c2ccccc2)N1Cc1ccncc1`: the results for the selectivity ratio in data set [1] and in data set [6] were 12 and 7.5, respectively. In addition, the IC50 stood at 6.72 µM in data set [2], 11.8 µM in data set [3], 18.9 µM in data set [4] and 142 µM in data set [5].

In the case of `CN(C)c1ccc(/C=C2/S/C(=N/c3ccccc3)N(Cc3ccncc3)C2=O)cc1`, the selectivity ratio came out at 2.3 in data set [1] and 1.6 in data set [6]. In addition, the IC50 in data set [2] is 32.9 µM; in data set [3], 52.6 µM; in data set [4], 76.3 µM; in data set [5], 122 µM.

As for `COc1ccc(/C=C2/S/C(=N/c3ccccc3)N(Cc3ccncc3)C2=O)cc1OC`, the selectivity ratio is 5.9 in data set [1] and 2.1 in data set [6]. Besides, the IC50 in data set [2] came to 20.9 µM; in data set [3] it was 28.9 µM; in data set [4], 80.7 µM; in data set [5], 171 µM.

On to `O=C1/C(=C\c2ccc3c(c2)OCO3)S/C(=N/c2ccccc2)N1Cc1ccncc1`, for which the values for the selectivity ratio in data set [1] and in data set [6] were 2.6 and 1.8, respectively. Moreover, the IC50 in data set [2] worked out at 58.4 µM; in data set [3], 24.4 µM; in data set [4], 35.2 µM; in data set [5], 64.8 µM.

On to `O=C1CS/C(=N/c2ccccc2)N1Cc1ccncc1`, for which the results for the selectivity ratio in data set [1] and in data set [6] were 3.8 and 1.5, respectively. In addition, the IC50 came to 26.1 µM in data set [2], 26 µM in data set [3], 65.8 µM in data set [4] and 99.5 µM in data set [5].

As to `O=C1/C(=C\c2cccc(O)c2)S/C(=N/c2ccccc2)N1Cc1ccncc1`, the selectivity ratio came out at 8.5 in data set [1] and 3.4 in data set [6]. Also, the IC50 in data set [2] worked out at 10.8 µM; in data set [3], 17.6 µM; in data set [4], 43.6 µM; in data set [5], 150 µM.

As to `O=C1/C(=C\c2ccc(O)c(O)c2)S/C(=N/c2ccccc2)N1Cc1ccncc1`, the selectivity ratio in data set [1] came to 14.2; in data set [6], 18.5. The IC50 in data set [2] was 1.84 µM; in data set [3] it was 16.2 µM; in data set [4] it was 12.4 µM; in data set [7] it was 2.32 µM; in data set [8], 27.2 µM; in data set [5] it was 230 µM.

With `COc1ccc(/C=C2/S/C(=N/c3ccccc3)N(Cc3ccncc3)C2=O)cc1`, the selectivity ratio in data set [1] is 2.5; in data set [6], 1.5. Also, the IC50 in data set [2] was 40.4 µM; in data set [3], 19.1 µM; in data set [4], 31.5 µM; in data set [5] it was 47.9 µM.

As for `CCOc1cc(/C=C2/S/C(=N/c3ccccc3)N(Cc3ccncc3)C2=O)ccc1O`, the figures for the selectivity ratio in data set [1] and in data set [6] were 2.2 and 2.3, respectively. Besides, the IC50 was 38.4 µM in data set [2], 20.4 µM in data set [3], 20.1 µM in data set [4] and 46.5 µM in data set [5].

On to `O=C1/C(=C\c2ccccn2)S/C(=N/c2ccccc2)N1Cc1ccncc1`, for which the results for the selectivity ratio in data set [1] and in data set [6] were 5.2 and 7.6, respectively. Besides, the half-inhibitory concentration (IC50) was found to be 6.64 µM in data set [2], 31 µM in data set [3], 21.1 µM in data set [4] and 161 µM in data set [5].

Take `Cc1ccc(/C=C2/S/C(=N/c3ccccc3)N(Cc3ccncc3)C2=O)cc1`: the selectivity ratio in data set [1] stood at 2.5; in data set [6] it was 1.3. Further, the IC50 in data set [2] was 57.3 µM; in data set [3], 19.7 µM; in data set [4], 36.9 µM; in data set [5] it was 49.5 µM.

With `O=C1/C(=C\c2ccc([N+](=O)[O-])cc2)S/C(=N/c2ccccc2)N1Cc1ccncc1`, the figures for the selectivity ratio in data set [1] and in data set [6] were 13.2 and 19.2, respectively. In addition, the IC50 was 1.61 µM in data set [2]; 18.9 µM in data set [3]; 13 µM in data set [4]; 11.2 µM in data set [7]; 14.4 µM in data set [8]; 250 µM in data set [5].

`COc1cccc2c1C(=O)c1c(O)c3c(c(O)c1C2=O)C[C@@](O)(C(=O)CO)C[C@@H]3O[C@H]1C[C@H](N)[C@H](O)[C@H](C)O1` [DOXORUBICIN]: the IC50 in data set [5] was determined as 148 µM.
